The source of these data is patent US11930812B2, “Coating materials for seeds and for particulate materials, including fertilizers” (ADVANCED BIOLOGICAL MARKETING, INC., priority 2017, dated 2024).

Data set [1] concerns corn. The data set can be described thus: Corn seedling size after seed or urea fertilizer treatment with cyclodextrin/6PP. The following applies: cyclodextrin formulation; 0.2, 2 and 20 μl/seed or μl/g of urea fertilizer; plants about 15 days old; FIG. 4. The class given is in vivo. On the procedure:
FIG. 4 illustrates corn seedling size following seed treatments at 0 (CO), 0.2, 2 and 20 μl/seed or of fertilizer with cyclodextrin/6PP at 0 (CO), 0.2, 2 and 20 μl/g of urea fertilizer. Plants were about 15 days old and bars with dissimilar letters denote statistical differences at P=0.01. The formulation systems designated here can be used with many other triggering compounds, signal molecules, or substances. In FIG. 4 is shown data on 6-pentyl pyrone (6PP) used with the same cyclodextrin formulation described above for use with 1-octen-3-ol. 6PP is effective in this use.

The test system of data set [2] is corn. The data set can be described thus: Corn root development in PVC tubes in natural field soil after seed treatment. The following applies: seed treated with 0.7 μl; corn maturity, 3 months after application; PVC tubes about 4 M long; FIG. 1A. Type of data set: in vivo. The protocol:
In the roots produced in field soil in PVC pipes, adequate water was applied throughout the growing season. Conversely, in the field trial shown in FIG. 1, the plants were subject to severe drought, according to official weather service notices. In both cases, the growth of roots was much greater when produced from seeds treated with the chemical. […] Turning to FIG. 1 in detail, pictured are the development of corn roots from seeds not treated (left) or treated with 0.7 μl of 1-octen-3-ol (right) at the time of corn maturity (that is, 3 months after application of octenol). In FIG. 1A, plants were grown in PVC tubes about 4 M long in natural field soil, and the treated seeds produced roots that exceeded the control by about 50%. Length of roots are indicated in meters (M) by the scale at right.

Data set [3] relates to corn. The data set can be described thus: Corn root length in field grown plants (back hoe trench) after seed treatment. To be noted: seed treatment 0.7 μl, severe drought, control root 30 cm, FIG. 1B. The class given is in vivo. The source says:
In the roots produced in field soil in PVC pipes, adequate water was applied throughout the growing season. Conversely, in the field trial shown in FIG. 1, the plants were subject to severe drought, according to official weather service notices. In both cases, the growth of roots was much greater when produced from seeds treated with the chemical. […] When grown in the field, that is, in a setting where maximum root length was not impeded by the experiment itself, a similar or better result obtained. In FIG. 1B, roots were exposed in field grown plants with a back hoe trench and photographed. The images were adjusted so that the root volume in each is proportionally sized. In the control shown the root was 30 cm long, and with the treatment the root was 78 cm long to deepest part of the root visible.

The subject of data set [4] is corn. The data set is described as follows: Corn field trials 2015, yields after seed treatment. The class given is in vivo. The following applies: seed treatment about 0.7 μl, 2-3 months post-planting. The protocol: Turning to FIG. 2 in detail, pictured are long-term effects of 1-octen-3-ol (represented as the designation “Omega” on the chart) on yields of corn, yield increases in squash and control of powdery mildew on squash. Treatments in every case were seed treatments with about 0.7 μl of 1-octen-3-ol. […] FIGS. 2A and 2B show yields of corn in field trials, 2015.

For data set [5], the system named is squash. The data set is described as follows: Field-grown squash yield after seed treatment. The class given is in vivo. The following applies: seed treatment about 0.7 μl; differences significant at P=0.01; FIG. 2C. On the procedure:
(§1) Turning to FIG. 2 in detail, pictured are long-term effects of 1-octen-3-ol (represented as the designation “Omega” on the chart) on yields of corn, yield increases in squash and control of powdery mildew on squash. Treatments in every case were seed treatments with about 0.7 μl of 1-octen-3-ol. […] FIGS. 2C and 2D show yield differences and disease resistance, as indicated by occurrence of powdery mildew from natural infection in field-grown squash following the same seed treatment protocol as above. The differences shown are significant at P=0.01. The yields are weights of fruit/ac. The powdery mildew disease rating is 0=no disease, 1=1 lesion/leaf, 2=2 lesions/leaf and 3=3 lesions per leaf.

In data set [6] the test system is powdery mildew. The data set is described as follows: Powdery mildew from natural infection in field-grown squash after seed treatment. Type of data set: in vivo. To be noted: seed treatment about 0.7 μl, differences significant at P=0.01, FIG. 2D. The protocol:
as §1

In data set [7] the test system is corn. The data set is described as follows: Field trials of seed treatment, early-season flooding stress. The class given is in vivo. The following applies: seed treatment 0.7 μl/seed.
For data set [8] the following is noted: moderate toxicity; cited from earlier work.

Take `CCCCCc1cccc(=O)o1` [6PP, 6-pentyl pyrone]: the corn seedling size entry in data set [1] is reported as “effective”.

Take `C=CC(O)CCCCC` (stereo not drawn) [1-octen-3-ol]: the “roots exceeding the control” value in data set [2] is reported as “about 50%”. The “root length to deepest part of the root visible” value in data set [3] is on record as 78 cm. Further, the “biomass yield of corn versus untreated” value in data set [4] (FIG. 2A) is listed as “significantly higher yields”. Also, the “grain yield of corn versus untreated” value in data set [4] (FIG. 2B) is “significantly higher yields”. Further, the “squash yield (weights of fruit/ac)” value in data set [5] is “systemically enhanced”. Moreover, the “disease resistance (powdery mildew disease rating)” value in data set [6] is “systemically enhanced”. The “resistance to flooding stress” value in data set [7] is “resistance to early-season flooding stress”. Besides, the “LD 50” value in data set [8] is recorded as 340 mg/kg.
